Measurements from US20110091473A1, “NOVEL ANTIBODY THERAPIES” (GENMAB A/S, priority 2007, published 2011).

Experiments:
Daudi cells [1] = assay: CD20 mAb-induced CDC of Daudi cells, PI/FACS analysis; type: cell-based, human; settings: for induction of CDC: non-treated Daudi cells, 15% normal human serum
Method: Cells were either non-treated or cholesterol-depleted as described in Example 2, Example 3 and Example 4, and resuspended in test medium to a concentration of 2×10^6 viable cells/ml. Daudi cells were used as target cells in a mAb-induced CDC assay. 50 μl of cell suspension was incubated with 50 μl anti-CD20 mAb in a serial dilution for 15 minutes at room temperature. After the incubation period, Normal Human Serum (M0008, Sanquin, Amsterdam, The Netherlands) was added as a source of complement (final concentration, 15%) to the cell suspension in round-bottomed microtiter plates (Nunc, Rochester, N.Y.). The mixture was incubated for 45 minutes at 37° C. after which the reaction was stopped by placing the samples on ice. Propidium iodide (PI, Sigma Aldrich, Zwijndrecht, The Netherlands) was added as a means to visualize the DNA content which becomes accessible upon permeabilisation of the cell membrane. The amount of PI-positive cells is directly correlated to the amount of dead cells, and measured using flow cytometry.

CD20 on Daudi cells = target: T1, CD20 on Daudi cells (Homo sapiens, UniProt P11836); assay: FACS binding of anti-CD20 mAb to MβCD-treated Daudi cells
T1 construct: endogenous in cells; host or cells: Daudi cells
T1 sequence (P11836 1-297): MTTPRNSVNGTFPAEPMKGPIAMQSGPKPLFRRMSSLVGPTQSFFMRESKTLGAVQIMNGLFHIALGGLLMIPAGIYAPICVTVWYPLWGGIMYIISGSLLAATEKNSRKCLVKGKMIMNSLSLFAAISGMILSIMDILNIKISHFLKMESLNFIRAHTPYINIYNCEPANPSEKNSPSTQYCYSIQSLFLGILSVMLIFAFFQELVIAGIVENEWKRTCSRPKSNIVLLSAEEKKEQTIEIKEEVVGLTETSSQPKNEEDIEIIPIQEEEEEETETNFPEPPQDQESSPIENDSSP
Method: To deplete cholesterol from the cell membrane, methyl-beta-cyclodextrin (MβCD, Sigma, Zwijndrecht, The Netherlands) was added in varying concentrations to Daudi cells and RAJI-CD20high cells and incubated for 30 minutes at 37° C. under gentle shaking conditions. After incubation the cells were washed twice in PBS and resuspended in test medium to a concentration of 2×10^6 viable cells/ml. […] After washing twice with FACS buffer (PBS, 0.1% Bovine Serum Albumine, 0.02% Sodium Azide), cells were analyzed on a FACS Calibur (Becton Dickinson, Breda, The Netherlands). […] Binding is expressed as mean fluorescence intensity.
Cholesterol was depleted from the cell membrane of various B cells using varying concentrations of MβCD (as described in Example 2). Cells (1×10^5 cells/staining) were incubated with a serial dilution of human CD20 mAb 2F2 starting at saturating concentrations for 30 minutes at 4° C. After washing with FACS buffer, polyclonal rabbit-anti-human IgG-FITC (DAKO A/S, Denmark) was added for 30 minutes at 4° C. The cells were washed again, resuspended in FACS buffer and analyzed by flow cytometry. The mean fluorescence intensity (MFI) is a measure for CD20 binding of the mAb. Sigmoidal dose-response curves were calculated using non-linear regression and the EC50 of mAb binding were determined (using GraphPad Prism 4 statistical software).

WIL2-S cells = assay: CD20 mAb-induced CDC of WIL2-S cells, PI/FACS analysis; type: cell-based, human; settings: for CDC inducing capacity after cholesterol replenishment: WIL2-S cells, cholesterol replenished; for sensitivity for CDC induction: lovastatin-treated vs non-treated WIL2-S cells
CD20 on WIL2-S cells = target: T2, CD20 on WIL2-S cells (Homo sapiens, UniProt P11836); assay: Binding of anti-CD20 mAb to WIL2-S cells with varied cholesterol content; settings: for affinity in binding to cholesterol-depleted cells: WIL2-S cells depleted with lovastatin; for binding affinity after addition of cholesterol: cholesterol added to non-treated control WIL2-S cells; for binding affinity after replenishing of cholesterol: lovastatin-treated WIL2-S cells replenished with cholesterol
T2 construct: endogenous in cells; host or cells: WIL2-S cells
T2 sequence (P11836 1-297): T1 sequence (P11836 1-297)
Method: To reconstitute cholesterol into the cell membrane of the cells or increase the cholesterol content of the untreated cells, cholesterol (ICN Biomedicals, Zoetermeer, The Netherlands) was added to the test medium in a final concentration of 5 mg/ml 2 hours prior to FACS analysis. The cells were incubated for 30 minutes at 37° C. under gentle shaking conditions, after which the cells were washed twice in PBS and resuspended to 2×10^6 viable cells/ml. For comparison MβCD- and lovastatin-treated cell lines treated with only diluent were included.
To confirm that lovastatin treatment might result in a change in CD20 mAb binding affinity lovastatin-treated RAJI cells were stained with a concentration curve of CD20 mAb. […] After washing with FACS buffer, polyclonal rabbit-anti-human IgG-FITC (DAKO A/S, Denmark) was added for 30 minutes at 4° C. to detect the bound CD20 mAb. Cells were washed again, resuspended in FACS buffer and analyzed on a flow cytometer. The mean fluorescence intensity (MFI) was taken as measure for CD20 binding of the mAb.
Binding of anti-CD20 mAb to CD20 on various B cell lines could be restored upon replenishment of the cell membrane cholesterol content via addition of cholesterol (according to procedure as described in Example 4) to either MβCD- or lovastatin-treated cells, as measured by FACS analysis (FIG. 3). This was also observed for WIL2-S cells for which binding affinity of anti-CD20 mAbs to CD20 was determined after reconstitution of cholesterol of cholesterol-depleted cells using flow cytometry (FIG. 13).

Daudi cells [2] = assay: CDC of Daudi cells, Alamar Blue assay; type: cell-based, human

Row | Substance | cells lysed via CDC (Daudi cells [1]; cholesterol-depleted Daudi cells) | induction of CDC (Daudi cells [1]) | reduction of binding affinity for CD20 (increase in EC50) (CD20 on Daudi cells; 0 mg/ml vs 5 mg/ml MβCD, Daudi cells) | binding of FITC-conjugated mAb (mean fluorescence intensity) (CD20 on Daudi cells; Daudi cells treated with varying concentrations of MβCD, 30 min) | CDC inducing capacity after cholesterol replenishment (WIL2-S cells) | sensitivity for CDC induction (WIL2-S cells) | affinity in binding to cholesterol-depleted cells (CD20 on WIL2-S cells) | binding affinity after addition of cholesterol (CD20 on WIL2-S cells) | binding affinity after replenishing of cholesterol (CD20 on WIL2-S cells) | potency in inducing cell lysis, compared with rituximab or 11B8 (Daudi cells [2]; Daudi cells) | CDC induction when treating cells with lovastatin (Daudi cells [2]; lovastatin-treated Daudi cells) | survival upon mAb-induced CDC (Daudi cells [2]; lovastatin-treated Daudi cells) | CDC-mediated lysis (Daudi cells [1]; cholesterol-depleted (lovastatin or MβCD) Daudi cells) | binding affinity upon cholesterol depletion (CD20 on Daudi cells; MβCD-treated Daudi cells)
1 | 2F2: human anti-CD20 mAb, VH SEQ ID NO:1, VL SEQ ID NO:2, disclosed in WO 2004/035607 | 50% | induced CDC | ~8 fold | dose-dependent decrease in binding | fully restored | less sensitive | reduced affinity | further improved the binding affinity | restores affinity to the level of non-treated cells | more potent | still capable of inducing CDC | enhanced survival |  | 
2 | rituximab: anti-CD20 antibody Rituxan/MabThera, type I |  | induced CDC |  |  | fully restored | less sensitive | reduced affinity | further improved the binding affinity | restores affinity to the level of non-treated cells |  |  | enhanced survival | abrogated | negatively affected
